Test results published in publication PMC3286537 (Purinergic Signalling, 2011).
Positions count from the first letter of the chain named. Where two headings read alike, the source gives them in different places.

Tests used:
[1] = biological target: T1, human adenosine A2BR mutant Y202S^5.58 (Homo sapiens, UniProt P29275, Y202S); assay: Solid yeast growth assay, mutant Y202S; type: cell-based; settings: inverse agonist response
T1 sequence (P29275 1-332 Y202S): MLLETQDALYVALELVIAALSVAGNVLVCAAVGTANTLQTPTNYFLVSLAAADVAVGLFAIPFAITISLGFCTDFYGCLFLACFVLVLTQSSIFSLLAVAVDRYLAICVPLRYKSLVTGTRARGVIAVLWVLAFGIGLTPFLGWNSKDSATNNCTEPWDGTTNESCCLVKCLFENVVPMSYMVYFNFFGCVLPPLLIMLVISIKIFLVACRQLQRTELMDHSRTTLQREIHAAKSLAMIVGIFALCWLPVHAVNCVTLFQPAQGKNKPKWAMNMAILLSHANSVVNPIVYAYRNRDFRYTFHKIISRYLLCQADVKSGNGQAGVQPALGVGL

[2] = test system: other 11 mutant adenosine A2BRs; assay: Solid yeast growth assay, the other 11 mutant receptors; type: cell-based, human; settings: 10 μM ZM241385
[3] = biological target: T1, human adenosine A2BR mutant Y202S^5.58; assay: Liquid yeast growth assay, mutant Y202S
[4] = biological target: T2, human adenosine A2BR mutant C167S^EL2 (Homo sapiens, UniProt P29275, C167S); assay: Liquid yeast growth assay, mutant C167S
T2 sequence (P29275 1-332 C167S): T1 sequence (P29275 1-332 Y202S) with C167S, S202Y

[5] = test system: A2BR mutant C167^EL2 to serine; settings: C167^EL2 mutated to serine; cited from earlier work
hA2BR [6] = biological target: T3, hA2BR (Homo sapiens, UniProt P29275); assay: Saturation binding on whole yeast cells expressing the hA2BR; settings: read-out: K D, yeast
T3 sequence (P29275 1-332): T1 sequence (P29275 1-332 Y202S) with S202Y

hA2BR [7] = biological target: T3, hA2BR; settings: CHO cell membranes expressing the hA2BR; cited from earlier work

For `Nc1nc(NCCc2ccc(O)cc2)nc2nc(-c3ccco3)nn12` [ZM241385, 4-{2-[7-amino-2-(2-furyl)[1,2,4]triazolo-[2,3-a][1,3,5]triazin-5-yl-amino]ethyl}phenol], the “effect on constitutive activity” value [1] was “could be reduced to wild-type levels” and the “effect on constitutive activity” value [2] was “could be fully suppressed”.
For `N#Cc1c(N)nc(SCC(N)=O)c(C#N)c1-c1ccc(OCC2CC2)cc1` [BAY 60-6583, 2-[6-amino-3,5-dicyano-4-[4-(cyclopropylmethoxy)phenyl]pyridin-2-ylsulfanyl]acetamide], the “fold increase in potency compared with wild type” value [3] is given as 10 fold, the “fold increase in potency compared with wild type” value [4] is given as 2 fold and the “fold increase in potency” value [5] is given as 2.5 fold.
For `CCCn1c(=O)[nH]c2nc(-c3ccc(S(=O)(=O)N4CCN(c5ccc(Cl)cc5)CC4)cc3)[nH]c2c1=O` [[^3H]PSB-603], the Kd (hA2BR [6]) is listed as 0.81 ± 0.02 nM and the Kd (hA2BR [7]) is listed as 0.4 ± 0.19 nM.
